The text below walks through data of patent publication US9023845B2, “Compositions and methods for treating lysosomal disorders” (priority 2007, dated 2015).

“Also recorded” adds a separate entry of the source.

Test [1] concerns Gaucher and/or Fabry B-cell lines. Briefly: Effect on cultured cell GSLs (TLC, orcinol detection). To be noted: 3 days, GSL fractions by TLC/orcinol. It counts as cell-based.
Test [2] deals with Fabry mice. To be noted: mouse, in vivo.
In test [3] the test system is Fabry mice. To be noted: mouse, in vivo, ip.

Consider `CCOC/C=C/c1ccc(-c2nc(-c3ccc(NC(C)C)cc3)c(-c3ccc(NC(C)C)cc3)[nH]2)cc1` [Formula 2], for which, in test [1] (4 μM), the Gb3 levels entry is reported as “decrease”; the “LacCer and GlcCer levels” value was “increased”. Also, in test [1] (8 μM), the “complex GSL levels” value is “significant reduced”. In addition, in test [2], the “heart Gb3 staining (VT1)” value was “effective in reducing heart Gb3 staining” and the “liver Gb3 staining (VT1)” value is “essentially no residual staining for Gb3 within the liver; also recorded: considerably less than in the control group; also recorded: more effective in reducing liver Gb3 staining as compared to mice treated with cyclosporine; also recorded: essentially removed Gb3 from the liver Kupffer cells”. Moreover, in test [3], the VT1 staining entry is listed as “decreased VT1 staining”, the “levels of GlcCer and/or LacCer” value is “increased levels” and the “levels of complex GSLs such as Gb3” value is recorded as “lower levels”.
